# Reference: PubChem BioAssay (NCI)
#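 Briefly, cells in 96-well plates were exposed to five compound concentrations for 48 h, and endpoints were estimated by linear interpolation. The concentration for 50% growth inhibition is given as GI50. TGI: total growth inhibition.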
# Experiments:
# Assay in all cases: NCI-60 cell line screen, 48 h
# K-562 leukemia = tested on: K-562 leukemia
# A498 renal = tested on: A498 renal
# NCI-H226 lung = tested on: NCI-H226 lung
# SK-MEL-2 melanoma = tested on: SK-MEL-2 melanoma
# DU-145 prostate = tested on: DU-145 prostate
# A549 NSCLC = tested on: A549 NSCLC
# CAKI-1 renal = tested on: CAKI-1 renal
# SR leukemia = tested on: SR leukemia
# HL-60(TB) leukemia = tested on: HL-60(TB) leukemia
# NCI-H23 lung = tested on: NCI-H23 lung
# HOP-62 NSCLC = tested on: HOP-62 NSCLC
# SNB-19 CNS = tested on: SNB-19 CNS
# SK-MEL-5 melanoma = tested on: SK-MEL-5 melanoma
# LOX IMVI melanoma = tested on: LOX IMVI melanoma
# MDA-MB-231 breast = tested on: MDA-MB-231 breast
# MALME-3M melanoma = tested on: MALME-3M melanoma
# NCI/ADR-RES ovarian = tested on: NCI/ADR-RES ovarian
# SK-MEL-28 melanoma = tested on: SK-MEL-28 melanoma
# HS 578T breast = tested on: HS 578T breast
# IGROV1 ovarian = tested on: IGROV1 ovarian
# HT29 colon = tested on: HT29 colon
# 786-0 renal = tested on: 786-0 renal
# OVCAR-4 ovarian = tested on: OVCAR-4 ovarian
# UACC-62 melanoma = tested on: UACC-62 melanoma
# NCI-H460 lung = tested on: NCI-H460 lung
# TK-10 renal = tested on: TK-10 renal
# SK-OV-3 ovarian = tested on: SK-OV-3 ovarian
# SNB-75 CNS = tested on: SNB-75 CNS
# RPMI-8226 leukemia = tested on: RPMI-8226 leukemia
# HOP-92 NSCLC = tested on: HOP-92 NSCLC
# COLO 205 colon = tested on: COLO 205 colon
# CCRF-CEM leukemia = tested on: CCRF-CEM leukemia
# SN12C renal = tested on: SN12C renal
# SF-268 CNS = tested on: SF-268 CNS
# NCI-H522 lung = tested on: NCI-H522 lung
# PC-3 prostate = tested on: PC-3 prostate
# UACC-257 melanoma = tested on: UACC-257 melanoma
# KM12 colon = tested on: KM12 colon
# MOLT-4 leukemia = tested on: MOLT-4 leukemia
# MDA-MB-435 = tested on: MDA-MB-435
# OVCAR-3 ovarian = tested on: OVCAR-3 ovarian
# ACHN renal = tested on: ACHN renal
# T-47D breast = tested on: T-47D breast
# OVCAR-5 ovarian = tested on: OVCAR-5 ovarian
# MCF7 breast = tested on: MCF7 breast
# M14 melanoma = tested on: M14 melanoma
# SF-295 CNS = tested on: SF-295 CNS
# BT-549 breast = tested on: BT-549 breast
# RXF 393 renal = tested on: RXF 393 renal
# U251 CNS = tested on: U251 CNS
# EKVX NSCLC = tested on: EKVX NSCLC
# SF-539 CNS = tested on: SF-539 CNS
smiles,measurement,setting,value
Cc1nn(-c2ccc([N+](=O)[O-])cc2)c2ncnc(N/N=C/c3ccccc3O)c12,GI50,K-562 leukemia,448 nM
same,TGI,K-562 leukemia,> 100000 nM
same,GI50,A498 renal,2920 nM
same,TGI,A498 renal,> 66900 nM
same,GI50,NCI-H226 lung,2560 nM
same,TGI,NCI-H226 lung,> 26200 nM
same,GI50,SK-MEL-2 melanoma,1570 nM
same,TGI,SK-MEL-2 melanoma,> 45000 nM
same,GI50,DU-145 prostate,382 nM
same,TGI,DU-145 prostate,> 100000 nM
same,GI50,A549 NSCLC,563 nM
same,TGI,A549 NSCLC,5410 nM
same,GI50,CAKI-1 renal,496 nM
same,TGI,CAKI-1 renal,1820 nM
same,GI50,SR leukemia,166 nM
same,GI50,HL-60(TB) leukemia,310 nM
same,GI50,NCI-H23 lung,864 nM
same,TGI,NCI-H23 lung,3760 nM
same,GI50,HOP-62 NSCLC,397 nM
same,TGI,HOP-62 NSCLC,3290 nM
same,GI50,SNB-19 CNS,507 nM
same,TGI,SNB-19 CNS,8650 nM
same,GI50,SK-MEL-5 melanoma,448 nM
same,TGI,SK-MEL-5 melanoma,2250 nM
same,GI50,LOX IMVI melanoma,220 nM
same,TGI,LOX IMVI melanoma,1470 nM
same,GI50,MDA-MB-231 breast,482 nM
same,TGI,MDA-MB-231 breast,3970 nM
same,GI50,MALME-3M melanoma,620 nM
same,TGI,MALME-3M melanoma,3950 nM
same,GI50,NCI/ADR-RES ovarian,337 nM
same,TGI,NCI/ADR-RES ovarian,3660 nM
same,GI50,SK-MEL-28 melanoma,443 nM
same,TGI,SK-MEL-28 melanoma,5530 nM
same,GI50,HS 578T breast,1430 nM
same,TGI,HS 578T breast,8270 nM
same,GI50,IGROV1 ovarian,462 nM
same,TGI,IGROV1 ovarian,4310 nM
same,GI50,HT29 colon,1300 nM
same,TGI,HT29 colon,> 100000 nM
same,GI50,786-0 renal,539 nM
same,TGI,786-0 renal,3410 nM
same,GI50,OVCAR-4 ovarian,202 nM
same,TGI,OVCAR-4 ovarian,4620 nM
same,GI50,UACC-62 melanoma,986 nM
same,TGI,UACC-62 melanoma,3760 nM
same,GI50,NCI-H460 lung,340 nM
same,TGI,NCI-H460 lung,1460 nM
same,GI50,TK-10 renal,942 nM
same,TGI,TK-10 renal,7780 nM
same,GI50,SK-OV-3 ovarian,497 nM
same,TGI,SK-OV-3 ovarian,> 22100 nM
same,GI50,SNB-75 CNS,554 nM
same,TGI,SNB-75 CNS,4230 nM
same,GI50,RPMI-8226 leukemia,619 nM
same,TGI,RPMI-8226 leukemia,> 100000 nM
same,GI50,HOP-92 NSCLC,806 nM
same,TGI,HOP-92 NSCLC,4630 nM
same,GI50,COLO 205 colon,385 nM
same,TGI,COLO 205 colon,10400 nM
same,GI50,CCRF-CEM leukemia,222 nM
same,TGI,CCRF-CEM leukemia,> 100000 nM
same,GI50,SN12C renal,399 nM
same,TGI,SN12C renal,3170 nM
same,GI50,SF-268 CNS,313 nM
same,TGI,SF-268 CNS,> 100000 nM
same,GI50,NCI-H522 lung,365 nM
same,TGI,NCI-H522 lung,7560 nM
same,GI50,PC-3 prostate,587 nM
same,TGI,PC-3 prostate,> 100000 nM
same,GI50,UACC-257 melanoma,1470 nM
same,TGI,UACC-257 melanoma,8560 nM
same,GI50,KM12 colon,379 nM
same,TGI,KM12 colon,> 100000 nM
same,GI50,MOLT-4 leukemia,321 nM
same,TGI,MOLT-4 leukemia,> 100000 nM
same,GI50,MDA-MB-435,654 nM
same,TGI,MDA-MB-435,> 100000 nM
same,GI50,OVCAR-3 ovarian,262 nM
same,TGI,OVCAR-3 ovarian,1560 nM
same,GI50,ACHN renal,300 nM
same,TGI,ACHN renal,1290 nM
same,GI50,T-47D breast,542 nM
same,TGI,T-47D breast,4950 nM
same,GI50,OVCAR-5 ovarian,2040 nM
same,TGI,OVCAR-5 ovarian,> 100000 nM
same,GI50,MCF7 breast,360 nM
same,TGI,MCF7 breast,> 100000 nM
same,GI50,M14 melanoma,299 nM
same,TGI,M14 melanoma,2200 nM
same,GI50,SF-295 CNS,1140 nM
same,TGI,SF-295 CNS,10300 nM
same,GI50,BT-549 breast,431 nM
same,TGI,BT-549 breast,> 42400 nM
same,GI50,RXF 393 renal,366 nM
same,TGI,RXF 393 renal,1620 nM
same,GI50,U251 CNS,332 nM
same,TGI,U251 CNS,2440 nM
same,GI50,EKVX NSCLC,2410 nM
same,TGI,EKVX NSCLC,> 100000 nM
same,GI50,SF-539 CNS,424 nM
same,TGI,SF-539 CNS,1770 nM
